In PMC12102759 (Protein Science : A Publication of the Protein Society, 2025):
Read-outs that look alike come from different tables or passages of the source.

Tested on: PABPC1 PABC
Format: binding, human
Conditions: DMS-BM library, bait PABPC1 PABC, row aa = residue at this position; for DMS-derived PSSM value, position K7: K = wild type
[1] = prey ATXN2, peptide TLNPNAKEFNPRSFSQ, N = wild type
[2] = prey ATXN2, TLNPNAKEFNPRSF(averaged) over the two overlapping peptides, P = wild type
[3] = prey ATXN2, TLNPNAKEFNPRSF(averaged) over the two overlapping peptides, N = wild type
[4] = prey ATXN2, peptide KSTLNPNAKEFNPRSF, E = wild type
[5] = prey ATXN2, peptide KSTLNPNAKEFNPRSF, F = wild type
[6] = prey ATXN2, peptide TLNPNAKEFNPRSFSQ
[7] = prey ATXN2, TLNPNAKEFNPRSF(averaged) over the two overlapping peptides, F = wild type
[8] = prey ATXN2, peptide TLNPNAKEFNPRSFSQ, S = wild type
[9] = prey ATXN2, peptide TLNPNAKEFNPRSFSQ, R = wild type
[10] = prey ATXN2, peptide KSTLNPNAKEFNPRSF, S = wild type
[11] = prey ATXN2, TLNPNAKEFNPRSF(averaged) over the two overlapping peptides, T = wild type
[12] = prey ATXN2, TLNPNAKEFNPRSF(averaged) over the two overlapping peptides, A = wild type
[13] = prey ATXN2, peptide TLNPNAKEFNPRSFSQ, F = wild type
[14] = prey ATXN2, TLNPNAKEFNPRSF(averaged) over the two overlapping peptides, L = wild type
[15] = prey ATXN2, peptide TLNPNAKEFNPRSFSQ, A = wild type
[16] = prey ATXN2, peptide KSTLNPNAKEFNPRSF, N = wild type

Substance: TLNPNAKEFNPRSFSQ N3Y (TLYPNAKEFNPRSFSQ)
- DMS-derived PSSM value, position N3 [1]: 0

Substance: TLNPNAKEFNPRSF(averaged) P11N (TLNPNAKEFNNRSF)
- DMS-derived PSSM value (averaged), position P11 [2]: 0.02352

Substance: TLNPNAKEFNPRSF(averaged) N5I (TLNPIAKEFNPRSF)
- DMS-derived PSSM value (averaged), position N5 [3]: 0.2839

Substance: TLNPNAKEFNPRSF(averaged) N3D (TLDPNAKEFNPRSF)
- DMS-derived PSSM value (averaged), position N3 [3]: 0.0826

Substance: KSTLNPNAKEFNPRSF E10Q (KSTLNPNAKQFNPRSF)
- DMS-derived PSSM value, position E10 [4]: 0

Substance: KSTLNPNAKEFNPRSF F16G (KSTLNPNAKEFNPRSG)
- DMS-derived PSSM value, position F16 [5]: 0

Substance: TLNPNAKEFNPRSFSQ K7A (TLNPNAAEFNPRSFSQ)
- DMS-derived PSSM value, position K7 [6]: 0.2382

Substance: TLNPNAKEFNPRSF(averaged) F9T (TLNPNAKETNPRSF)
- DMS-derived PSSM value (averaged), position F9 [7]: 0.02947

Substance: TLNPNAKEFNPRSFSQ S13K (TLNPNAKEFNPRKFSQ)
- DMS-derived PSSM value, position S13 [8]: 0.007933

Substance: TLNPNAKEFNPRSFSQ R12E (TLNPNAKEFNPESFSQ)
- DMS-derived PSSM value, position R12 [9]: 0.01629

Substance: TLNPNAKEFNPRSFSQ T1D (DLNPNAKEFNPRSFSQ)
- DMS-derived PSSM value, position T1 (prey ATXN2, peptide TLNPNAKEFNPRSFSQ, T = wild type): 0.106

Substance: TLNPNAKEFNPRSF(averaged) N3I (TLIPNAKEFNPRSF)
- DMS-derived PSSM value (averaged), position N3 [3]: 0

Substance: TLNPNAKEFNPRSFSQ N5H (TLNPHAKEFNPRSFSQ)
- DMS-derived PSSM value, position N5 [1]: 0.04051

Substance: TLNPNAKEFNPRSFSQ R12H (TLNPNAKEFNPHSFSQ)
- DMS-derived PSSM value, position R12 [9]: 0.186

Substance: TLNPNAKEFNPRSF(averaged) R12K (TLNPNAKEFNPKSF)
- DMS-derived PSSM value (averaged), position R12 (prey ATXN2, TLNPNAKEFNPRSF(averaged) over the two overlapping peptides, R = wild type): 0.01002

Substance: TLNPNAKEFNPRSF(averaged) S13Q (TLNPNAKEFNPRQF)
- DMS-derived PSSM value (averaged), position S13 (prey ATXN2, TLNPNAKEFNPRSF(averaged) over the two overlapping peptides, S = wild type): 0.009251

Substance: TLNPNAKEFNPRSF(averaged) F9I (TLNPNAKEINPRSF)
- DMS-derived PSSM value (averaged), position F9 [7]: 0

Substance: KSTLNPNAKEFNPRSF S15M (KSTLNPNAKEFNPRMF)
- DMS-derived PSSM value, position S15 [10]: 0.01897

Substance: TLNPNAKEFNPRSF(averaged) T1S (SLNPNAKEFNPRSF)
- DMS-derived PSSM value (averaged), position T1 [11]: 0.002379

Substance: TLNPNAKEFNPRSF(averaged) A6V (TLNPNVKEFNPRSF)
- DMS-derived PSSM value (averaged), position A6 [12]: 0.3197

Substance: TLNPNAKEFNPRSFSQ F9V (TLNPNAKEVNPRSFSQ)
- DMS-derived PSSM value, position F9 [13]: 0.0008789

Substance: TLNPNAKEFNPRSF(averaged) F9H (TLNPNAKEHNPRSF)
- DMS-derived PSSM value (averaged), position F9 [7]: 0

Substance: TLNPNAKEFNPRSFSQ S13F (TLNPNAKEFNPRFFSQ)
- DMS-derived PSSM value, position S13 [8]: 0.004247

Substance: TLNPNAKEFNPRSF(averaged) A6P (TLNPNPKEFNPRSF)
- DMS-derived PSSM value (averaged), position A6 [12]: 0

Substance: TLNPNAKEFNPRSFSQ S15M (TLNPNAKEFNPRSFMQ)
- DMS-derived PSSM value, position S15 [8]: 0.1078

Substance: TLNPNAKEFNPRSF(averaged) P4L (TLNLNAKEFNPRSF)
- DMS-derived PSSM value (averaged), position P4 [2]: 0.1003

Substance: TLNPNAKEFNPRSFSQ K7D (TLNPNADEFNPRSFSQ)
- DMS-derived PSSM value, position K7 [6]: 0.01281

Substance: KSTLNPNAKEFNPRSF A8Q (KSTLNPNQKEFNPRSF)
- DMS-derived PSSM value, position A8 (prey ATXN2, peptide KSTLNPNAKEFNPRSF, A = wild type): 0

Substance: TLNPNAKEFNPRSF(averaged) N3T (TLTPNAKEFNPRSF)
- DMS-derived PSSM value (averaged), position N3 [3]: 0.009966

Substance: KSTLNPNAKEFNPRSF L4F (KSTFNPNAKEFNPRSF)
- DMS-derived PSSM value, position L4 (prey ATXN2, peptide KSTLNPNAKEFNPRSF, L = wild type): 0

Substance: TLNPNAKEFNPRSF(averaged) F9A (TLNPNAKEANPRSF)
- DMS-derived PSSM value (averaged), position F9 [7]: 0

Substance: TLNPNAKEFNPRSF(averaged) L2V (TVNPNAKEFNPRSF)
- DMS-derived PSSM value (averaged), position L2 [14]: 0.005447

Substance: TLNPNAKEFNPRSFSQ F14W (TLNPNAKEFNPRSWSQ)
- DMS-derived PSSM value, position F14 [13]: 0.01201

Substance: TLNPNAKEFNPRSFSQ A6W (TLNPNWKEFNPRSFSQ)
- DMS-derived PSSM value, position A6 [15]: 0

Substance: KSTLNPNAKEFNPRSF S15W (KSTLNPNAKEFNPRWF)
- DMS-derived PSSM value, position S15 [10]: 0.009844

Substance: TLNPNAKEFNPRSFSQ P4F (TLNFNAKEFNPRSFSQ)
- DMS-derived PSSM value, position P4 (prey ATXN2, peptide TLNPNAKEFNPRSFSQ, P = wild type): 0.01173

Substance: TLNPNAKEFNPRSFSQ N5S (TLNPSAKEFNPRSFSQ)
- DMS-derived PSSM value, position N5 [1]: 0.00244

Substance: TLNPNAKEFNPRSFSQ E8I (TLNPNAKIFNPRSFSQ)
- DMS-derived PSSM value, position E8 (prey ATXN2, peptide TLNPNAKEFNPRSFSQ, E = wild type): 0.01296

Substance: TLNPNAKEFNPRSFSQ N3E (TLEPNAKEFNPRSFSQ)
- DMS-derived PSSM value, position N3 [1]: 0

Substance: TLNPNAKEFNPRSFSQ A6F (TLNPNFKEFNPRSFSQ)
- DMS-derived PSSM value, position A6 [15]: 0

Substance: KSTLNPNAKEFNPRSF N7H (KSTLNPHAKEFNPRSF)
- DMS-derived PSSM value, position N7 [16]: 0.03167

Substance: TLNPNAKEFNPRSF(averaged) F9D (TLNPNAKEDNPRSF)
- DMS-derived PSSM value (averaged), position F9 [7]: 0.001318

Substance: TLNPNAKEFNPRSFSQ F9K (TLNPNAKEKNPRSFSQ)
- DMS-derived PSSM value, position F9 [13]: 0

Substance: KSTLNPNAKEFNPRSF N5I (KSTLIPNAKEFNPRSF)
- DMS-derived PSSM value, position N5 [16]: 0

Substance: TLNPNAKEFNPRSF(averaged) P11R (TLNPNAKEFNRRSF)
- DMS-derived PSSM value (averaged), position P11 [2]: 0.003178

Substance: TLNPNAKEFNPRSF(averaged) N5T (TLNPTAKEFNPRSF)
- DMS-derived PSSM value (averaged), position N5 [3]: 0.01041

Substance: TLNPNAKEFNPRSFSQ S15F (TLNPNAKEFNPRSFFQ)
- DMS-derived PSSM value, position S15 [8]: 0.01014

Substance: KSTLNPNAKEFNPRSF F11I (KSTLNPNAKEINPRSF)
- DMS-derived PSSM value, position F11 [5]: 0

Substance: KSTLNPNAKEFNPRSF F16Q (KSTLNPNAKEFNPRSQ)
- DMS-derived PSSM value, position F16 [5]: 0.002875

Substance: KSTLNPNAKEFNPRSF E10I (KSTLNPNAKIFNPRSF)
- DMS-derived PSSM value, position E10 [4]: 0

Substance: TLNPNAKEFNPRSFSQ N10S (TLNPNAKEFSPRSFSQ)
- DMS-derived PSSM value, position N10 [1]: 0.03126

Substance: TLNPNAKEFNPRSF(averaged) T1W (WLNPNAKEFNPRSF)
- DMS-derived PSSM value (averaged), position T1 [11]: 0.008583

Substance: TLNPNAKEFNPRSFSQ F14M (TLNPNAKEFNPRSMSQ)
- DMS-derived PSSM value, position F14 [13]: 0.2558

Substance: TLNPNAKEFNPRSFSQ N10E (TLNPNAKEFEPRSFSQ)
- DMS-derived PSSM value, position N10 [1]: 0.00197

Substance: TLNPNAKEFNPRSFSQ A6V (TLNPNVKEFNPRSFSQ)
- DMS-derived PSSM value, position A6 [15]: 0.2197

Substance: TLNPNAKEFNPRSFSQ N10R (TLNPNAKEFRPRSFSQ)
- DMS-derived PSSM value, position N10 [1]: 0.03785

Substance: KSTLNPNAKEFNPRSF P6Y (KSTLNYNAKEFNPRSF)
- DMS-derived PSSM value, position P6 (prey ATXN2, peptide KSTLNPNAKEFNPRSF, P = wild type): 0

Substance: TLNPNAKEFNPRSF(averaged) T1N (NLNPNAKEFNPRSF)
- DMS-derived PSSM value (averaged), position T1 [11]: 0.01868

Substance: KSTLNPNAKEFNPRSF S2D (KDTLNPNAKEFNPRSF)
- DMS-derived PSSM value, position S2 [10]: 0.01347

Substance: TLNPNAKEFNPRSF(averaged) L2E (TENPNAKEFNPRSF)
- DMS-derived PSSM value (averaged), position L2 [14]: 0.04453

Substance: KSTLNPNAKEFNPRSF E10D (KSTLNPNAKDFNPRSF)
- DMS-derived PSSM value, position E10 [4]: 0

Substance: KSTLNPNAKEFNPRSF T3V (KSVLNPNAKEFNPRSF)
- DMS-derived PSSM value, position T3 (prey ATXN2, peptide KSTLNPNAKEFNPRSF, T = wild type): 0.2131

Substance: KSTLNPNAKEFNPRSF S2A (KATLNPNAKEFNPRSF)
- DMS-derived PSSM value, position S2 [10]: 0.03999

Substance: TLNPNAKEFNPRSFSQ S13L (TLNPNAKEFNPRLFSQ)
- DMS-derived PSSM value, position S13 [8]: 0.06939

Substance: KSTLNPNAKEFNPRSF F11T (KSTLNPNAKETNPRSF)
- DMS-derived PSSM value, position F11 [5]: 0

Substance: TLNPNAKEFNPRSF(averaged) F9G (TLNPNAKEGNPRSF)
- DMS-derived PSSM value (averaged), position F9 [7]: 0

Substance: TLNPNAKEFNPRSFSQ N10K (TLNPNAKEFKPRSFSQ)
- DMS-derived PSSM value, position N10 [1]: 0.01052

Substance: TLNPNAKEFNPRSF(averaged) F14S (TLNPNAKEFNPRSS)
- DMS-derived PSSM value (averaged), position F14 [7]: 0.01539

Substance: TLNPNAKEFNPRSF(averaged) A6S (TLNPNSKEFNPRSF)
- DMS-derived PSSM value (averaged), position A6 [12]: 0.04153
